The text below walks through data of EP1013282A2, “Pharmaceutical and foodstuff compositions containing transferrins and antibacteral agents for potentiating host defence activity and the treatment of infections” (priority 1992, dated 1993).

The test system of data set [1] is Escherichia coli c 11. The data set can be described thus: Intraperitoneal E. coli infection in mice: other chemotherapies with or without lactoferrin (Example 5). The format is in vivo. Particulars: for ED50: gentamicin subcutaneous, ddY mice n=6; for potentiation of efficacy of the chemotherapy by lactoferrin: lactoferrin 0.5 mg/mouse oral, in vivo. The text has this: Example 5-The antimicrobial activities of chemotherapies were compared with or without lactoferrin treatment. The antimicrobial agents used were new quinolones, aminoglycoside antibiotic, gentamicin, erythromycin, chloramphenicol and minocycline. The efficacy was compared between the controls and lactoferrin groups. Mice strain ddY, four weeks old, were randomly allocated into groups (n=6) and intraperitoneally infected with Escherichia coli c 11 at a dose of 1 x 10^6 cells per mouse. One hour after the injection the chemotherapies and lactoferrin (0.5 mg/mouse) were simultaneously given orally except gentamicin was given subcutaneously since it is unabsorable from the intestinal tract. Evaluation of potentiation of the chemotherapies by lactoferrin is the same as described above. […]

The test system of data set [2] is Proteus vulgaris OX.8. The data set can be described thus: Intraperitoneal Proteus vulgaris infection in mice: oral β-lactam with or without oral lactoferrin (Example 4). The format is in vivo. The following applies: for ED50: ddY mice n=6, survivors at one week; for simultaneous administration with lactoferrin reduced the ED50s to: fraction of ED50 of antibiotic alone, lactoferrin 0.5 mg/mouse. The protocol:
Example 4-The efficacy potentiation of lactoferrin was examined using mice infected with Proteus vulgaris OX.8. Each group of six mice, strain ddY, four weeks old, were intraperitoneally infected with P. vulgaris suspended in 3% gastric mucin at a dose of 2 x 10^6 cells per mouse. One hour after the injection, lactoferrin (0.5 mg/mouse) was orally given simultaneously with cephalosporins. […]
Consequently, the efficacy potentiation of cephalosporin due to simultaneous treatment with lactoferrin is not restricted merely to the pathogens belonging to the genus Escherichia and Klebsiella, but also includes Proteus.

Data set [3] relates to Escherichia coli c 11. The data set can be described thus: Optimal dose of lactoferrin with cefaclor in E. coli infected mice (Example 6). The format is in vivo. Particulars: Lactoferrin dose 0.000 (cefaclor alone). The protocol: Example 6-Optimal dose of lactoferrin was studied using mice strain ddY (n=6), four weeks old. The mice were intraperitoneally infected with Escherichia coli c 11 at a dose of 1 x 10^6 cells per mouse, and they were treated once orally with a mixture of lactoferrin and cefaclor one hour after the injection.

Data set [4] deals with Escherichia coli c 11. The data set can be described thus: Timing of lactoferrin administration with cefaclor in E. coli infected mice (Example 7). The following applies: control (no lactoferrin). The format is in vivo. An excerpt:
Example 7-The timing of lactoferrin administration is very important not only from a clinical point of view, but also from an economical point of view, since it indicates whether or not the treatment with lactoferrin is prophylactic, or curative, or both. The timing was studied using the same model as described in Example 6. Cefaclor was orally given one hour after injection of the bacteria. […]

Data set [5] in a line: Serum concentrations of cephalosporins with or without lactoferrin, bioassay with Bacillus subtilis (Experimental Example 2). Here is the method:
Experimental Example 2-The effect of lactoferrin on intestinal absorption of cephalosporin antibiotics was studied using male ddY mice (n=6), five weeks old.
The cephalosporin antibiotics used were cephalexin, cefixime, cefaclor and cefroxazine, and the serum , concentrations were determined by bioassay using Bacillus subtilis. The doses of the antibiotics and lactoferrin were 0.5 mg per mouse of each.

Data set [6] deals with Escherichia coli strain c-11. The data set can be described thus: Intraperitoneal E. coli infection in mice: oral cephalosporin with or without oral lactoferrin (Example 3). Particulars: for ED50: ddY mice n=6, survivors at one week; for ED50s reduced by simultaneous administration of lactoferrin to: fraction of ED50 of antibiotic alone, lactoferrin 1 mg/mouse. The format is in vivo. The protocol: Example 3-groups of six male mice strain ddY, four weeks old, were used in this experiment. They were intraperitoneally infected with 3% mucin suspension of Escherichia coli strain c-11 at a dose of 1 X 10^6 cells per mouse. Oral cephalosporin antibiotic was administered one hour after the injection simultaneously with bovine milk lactoferrin (26% iron saturation), 1 mg/mouse. Each control was given cephalosporin alone. The mice were observed one week after the injection and survivors were regarded as completely cured. […]

The subject of data set [7] is Proteus mirabilis strain 1287. The data set can be described thus: Upper urinary tract infection in mice, kidney colony count (Example 9). The format is in vivo. The following applies: for colony count ratio, lactoferrin (+) to (-): Lactoferrin (+) relative to Lactoferrin (-). The text has this:
Example 9-Male ICR mice, five weeks old, were dehydrated overnight, and Proteus mirabilis strain 1287 was inoculated into the bladder at a dose of 2 x 10^5 CFU per mouse. In order for the pathogen to colonize the kidneys, the urethra was closed by a clip for four hours. Ampicillin was orally given to the mice twice daily (10:00 am and 7:00 pm) for two consecutive days with or without oral lactoferrin therapy. On day 3 all mice were sacrificed and the kidneys were dissected ascetically. The kidneys were homogenized in sterile saline and the homogenate was spread over nutrient agar plates to determine the numbers of colonizing bacteria. […]

[8] abbreviates: agent alone (Lactoferrin -), oral, one hour after infection.
Setting [9] is: agent with Lactoferrin + (0.5 mg/mouse oral, simultaneous).
Where [10] appears, read: antibiotic alone (Lactoferrin -), oral one hour after infection.
The mark [11] stands for this setting: antibiotic with Lactoferrin + (0.5 mg/mouse, oral, simultaneous).
[12] abbreviates: mice, oral, lactoferrin simultaneously, blood withdrawn periodically.
[13] abbreviates: antibiotic with Lactoferrin + (bovine milk lactoferrin 1 mg/mouse, oral, simultaneous).

For `NC1CCN(c2nc3c(cc2F)c(=O)c(C(=O)O)cn3-c2ccc(F)cc2F)C1` (stereo not shown) [tosfloxacin], the results for the ED50 in data set [1] (setting [8]) and in data set [1] (setting [9]) were 0.013 mg/mouse and 0.009 mg/mouse, respectively.
As for `N[C@@H](C(=O)N[C@@H]1C(=O)N2C(C(=O)O)=C(Cl)CS[C@H]12)c1ccccc1` [cefaclor], the ED50 is reported as 1.790 mg/mouse in data set [2] (setting [10]); 0.058 mg/mouse in data set [2] (setting [11]); 1.510 mg/mouse in data set [3]; 1.846 mg/mouse in data set [4]; 0.75 mg/mouse in data set [6] (setting [10]); 0.38 mg/mouse in data set [6] (setting [13]). Moreover, the “simultaneous administration with lactoferrin reduced the ED50s to” value in data set [2] is listed as 1/3. Besides, the “blood levels of the antibiotics with versus without lactoferrin” value in data set [5] (setting [12]) is listed as “virtually the same”. Further, the “ED50s reduced by simultaneous administration of lactoferrin to” value (“ED50s reduced” for short) in data set [6] was 1/2.
On to `CC1=C(C(=O)O)N2C(=O)[C@@H](NC(=O)[C@H](N)c3ccccc3)[C@H]2SC1` [cefalexin], for which the ED50 in data set [2] (setting [10]) is on record as 0.402 mg/mouse; in data set [2] (setting [11]), 0.185 mg/mouse; in data set [6] (setting [10]), 8.54 mg/mouse; in data set [6] (setting [13]), 1.42 mg/mouse. Further, the “simultaneous administration with lactoferrin reduced the ED50s to” value in data set [2] is 1/2. For the same molecule, in data set [5] (mouse, in vivo, po), the “blood levels of the antibiotics with versus without lactoferrin” value was “virtually the same”. Besides, the “ED50s reduced” value in data set [6] is reported as 1/4.
`CC[C@H]1OC(=O)[C@H](C)[C@@H](O[C@H]2C[C@@](C)(OC)[C@@H](O)[C@H](C)O2)[C@H](C)[C@@H](O[C@@H]2O[C@H](C)C[C@H](N(C)C)[C@H]2O)[C@](C)(O)C[C@@H](C)C(=O)[C@H](C)[C@@H](O)[C@]1(C)O` [erythromycin]: the “potentiation of efficacy of the chemotherapy by lactoferrin” value in data set [1] is “potentiated the efficacy”.
For the molecule `O=C(N[C@H](CO)[C@H](O)c1ccc([N+](=O)[O-])cc1)C(Cl)Cl` [chloramphenicol], the ED50 in data set [1] (setting [8]) stood at 5.11 mg/mouse; in data set [1] (setting [9]), 1.94 mg/mouse. Besides, the “potentiation of efficacy of the chemotherapy by lactoferrin” value in data set [1] is “potentiated the efficacy”.
Consider `C=CC1=C(C(=O)O)N2C(=O)[C@@H](NC(=O)/C(=N\OCC(=O)O)c3csc(N)n3)[C@H]2SC1` [cefixime], for which the ED50 in data set [2] (setting [10]) is given as 0.519 mg/mouse; in data set [2] (setting [11]), 0.177 mg/mouse; in data set [6] (setting [10]), 1.03 mg/mouse; in data set [6] (setting [13]), 0.23 mg/mouse. The “simultaneous administration with lactoferrin reduced the ED50s to” value in data set [2] is given as 1/3. For the same molecule, in data set [5] (setting [12]), the “blood levels of the antibiotics with versus without lactoferrin” value is on record as “virtually the same”. For the same molecule, in data set [6], the “ED50s reduced” value is on record as 1/4.
For `CC1(C)S[C@@H]2[C@H](NC(=O)[C@H](N)c3ccccc3)C(=O)N2[C@H]1C(=O)O` [ampicillin], the “colony quantity, Lactoferrin (-)” value is on record as 100,704 CFU/kidney in data set [7] (ampicillin 0.01 mg/mouse); 63,216 CFU/kidney in data set [7] (ampicillin 0.1 mg/mouse); 88 CFU/kidney in data set [7] (ampicillin 1.0 mg/mouse oral twice daily for two days, ICR mice, kidneys on day 3). For the same molecule, the “colony quantity, Lactoferrin (+)” value in data set [7] (ampicillin 0.01 mg/mouse with lactoferrin 1 mg per mouse) was 58 CFU/kidney; in data set [7] (ampicillin 0.1 mg/mouse with lactoferrin 1 mg per mouse) it was 36 CFU/kidney; in data set [7] (ampicillin 1.0 mg/mouse with lactoferrin 1 mg per mouse) it was 0 CFU/kidney. Moreover, the “colony count ratio, lactoferrin (+) to (-)” value is 1/1736 in data set [7] (ampicillin 0.01 mg/mouse), 1/1756 in data set [7] (ampicillin 0.1 mg/mouse) and <1/88 in data set [7] (ampicillin 1.0 mg/mouse). In addition, the ED50 in data set [2] (setting [10]) came to 0.300 mg/mouse; in data set [2] (setting [11]) it was 0.148 mg/mouse. Also, the “simultaneous administration with lactoferrin reduced the ED50s to” value in data set [2] is recorded as 1/2.
`CN(C)c1ccc(O)c2c1C[C@H]1C[C@H]3[C@H](N(C)C)C(O)=C(C(N)=O)C(=O)[C@@]3(O)C(O)=C1C2=O` [minocycline]: the ED50 in data set [1] (setting [8]) is recorded as 1.859 mg/mouse; in data set [1] (setting [9]), 0.631 mg/mouse.
As to `O=C(O)c1cn(C2CC2)c2cc(N3CCNCC3)c(F)cc2c1=O` [ciprofloxacin], the values for the ED50 in data set [1] (setting [8]) and in data set [1] (setting [9]) were 0.200 mg/mouse and 0.214 mg/mouse, respectively.
Take gentamicin: the ED50 in data set [1] (setting [8]) is 0.608 mg/mouse; in data set [1] (setting [9]) it was 0.610 mg/mouse.
As for `COC1=C(C(=O)O)N2C(=O)[C@@H](NC(=O)[C@H](N)C3=CCC=CC3)[C@H]2SC1` [cefroxadine], the ED50 amounted to 0.606 mg/mouse in data set [2] (setting [10]), 0.312 mg/mouse in data set [2] (setting [11]), 1.27 mg/mouse in data set [6] (setting [10]) and 0.42 mg/mouse in data set [6] (setting [13]). In data set [5] (setting [12]), the “blood levels of the antibiotics with versus without lactoferrin” value is reported as “virtually the same”. The “ED50s reduced” value in data set [6] is given as 1/3.
Consider `CC1COc2c(N3CCN(C)CC3)c(F)cc3c(=O)c(C(=O)O)cn1c23` (stereo not shown) [ofloxacin], for which the figures for the ED50 in data set [1] (setting [8]) and in data set [1] (setting [9]) were 0.231 mg/mouse and 0.251 mg/mouse, respectively.
